This note sets out measurements from patent publication US20260215418A1, “HYDROCARBON ALCOHOLS AND THEIR DERIVATIVES AS SYNERGISTS IN PESTICIDE ACTIVITY” (priority 2022, published 2026).

For data set [1], the system named is Musca domestica L. The data set can be described thus: Contact test on non-porous tile, Musca domestica. In kind it is in vivo. Details: Mortality %: concentration or dose not given beside the values. Conditions: for mortality at 680 µg/mL: 0.68 mg/ml; for Mortality %: insects on treated tile. Here is the method: 1 ml of Composition 1 was applied to the tile. […] 1 ml of Composition 8a was distributed on the tile. […] 1 ml of Composition 8a was distributed on a tile. […] At the end of the 30 minutes, the flies were transferred to an untreated area.
1 ml of Composition 3 was applied to the tile. […] 1 ml of Composition 8c was distributed on the tile. […] 1 ml of Composition 8c was distributed on a tile. […] At the end of the 30 minutes, the flies were transferred to an untreated area.
1 ml of Composition 9a was distributed on the tile. […] 1 ml of Composition 9a was distributed on a tile. […] At the end of the 30 minutes, the flies were transferred to an untreated area. […] 1 ml of Composition 10a was distributed on the tile. […] 1 ml of Composition 10a was distributed on a tile. […] At the end of the 30 minutes, the flies were transferred to an untreated area. […] 1 ml of Composition 8c was distributed on the tile. […] 1 ml of Composition 8c was distributed on a tile. […] At the end of the 30 minutes, the flies were transferred to an untreated area.
1 ml of Composition 5a, was distributed on the tile. […] 1 ml of Composition 6a was distributed on the tile. […] 1 ml of Composition 7a was distributed on the tile.
1 ml of Composition 3 was distributed on the tile. […] 1 ml of Composition 9a was distributed on the tile. […] 1 ml of Composition 11a was distributed on a tile. […] 1 ml of Composition 12a was distributed on a tile.
1 ml of Composition 3 was distributed on the tile. […] 1 ml of Composition 17a was distributed on a tile. […] 1 ml of Composition 18a was distributed on a tile. […] Each experiment (A-C) was conducted in duplicate.
1 ml of Composition 23a was distributed on the tile. […] 1 ml of Composition 20a was distributed on a tile. […] Each experiment (A-B) was conducted in duplicate.
1 ml of Composition 3 was distributed on the tile. […] 1 ml of Composition 25a was distributed on a tile. […] Each experiment (A-B) was conducted in duplicate.
1 ml of Composition 23a was distributed on the tile. […] 1 ml of Composition 27a was distributed on a tile. […] Each experiment (A-B) was conducted in duplicate.
1 ml of Composition 26a was distributed on a tile. […] 1 ml of Composition 26b was distributed on a tile. […] 1 ml of Composition 26c was distributed on a tile.
1 ml of Composition 22a was distributed on a tile. […] 1 ml of Composition 22b was distributed on a tile. […] 1 ml of Composition 22c was distributed on a tile.
1 ml of Composition 23a was distributed on the tile. […] 1 ml of Composition 44a was distributed on a tile.
1 ml of Composition 33 was distributed on a tile. […] 1 ml of Composition 33 was distributed on a tile. […] At the end of the 30 minutes, the flies were transferred to an untreated area.
1 ml of Composition 1 was distributed on the tile. […] 1 ml of Composition 34 was distributed on a tile. […] 1 ml of Composition 34 was distributed on a tile. […] At the end of the 30 minutes, the flies were transferred to an untreated area.
1 ml of Composition 3 was distributed on the tile. […] 1 ml of Composition 31a was distributed on a tile. […] 1 ml of Composition 31b was distributed on a tile. […] 1 ml of Composition 31b was distributed on a tile. […] At the end of the 30 minutes, the flies were transferred to an untreated area. […] 1 ml of Composition 38a was distributed on a tile. […] 1 ml of Composition 38a was distributed on a tile. […] At the end of the 30 minutes, the flies were transferred to an untreated area.
G) According to the invention. 1 ml of Composition 40a was distributed on a tile. […] Subsequently, after waiting for the solvent to evaporate, 10 flies were placed on top of the treated til

The subject of data set [2] is Blatta orientalis. Conditions: for Mortality %/time (h) (application): Table 37, Blatta orientalis, concentrations in mg/ml in label; for Mortality %: insects on treated tile. The procedure: Method: Contact test on non-porous tile measuring 400 cm^2 at a temperature of 28° C. Test duration: up to 72 hours after exposure of the insect to the insecticidal active substance.
(§1) Three tests were performed in parallel, A, B, and C, as follows: • A) Comparative. 1 ml of Composition 2 was applied to the tile. After waiting for the complete evaporation of the solvent, 10 cockroaches were placed on top of the treated tile, starting the test. • B) According to the invention. 1 ml of Composition 8b was distributed on the tile. After waiting for the complete evaporation of the solvent, 1 ml of Composition 2 was added to the same tile. Subsequently, after waiting for the solvent to evaporate, 10 cockroaches were placed on top of the treated tile, starting the test. • C) According to the invention. 1 ml of Composition 8b was distributed on a tile. After waiting for the complete evaporation of the solvent, 10 cockroaches were placed for 30 minutes on top of the treated tile. At the end of the 30 minutes, the cockroaches were transferred to an untreated area.
Method: Contact test on non-porous tile measuring 400 cm^2 at a temperature of 28° C. Test duration: up to 120 hours after exposure of the insect to the insecticidal active substance.
as §1, with “4a” for “2”, “8d” for “8b”, “After” for “Subsequently, after”
Six tests were performed in parallel, A, B, C, D, E and F, as follows: • A) Comparative. 1 ml of Composition 9b was distributed on the tile. After waiting for the complete evaporation of the solvent, 1 ml of Composition 4a was added to the same tile. Subsequently, after waiting for the solvent to evaporate, 10 cockroaches were placed on top of the treated tile, starting the test. • B) Comparative. 1 ml of Composition 9b was distributed on a tile. After waiting for the complete evaporation of the solvent, 10 cockroaches were placed for 30 minutes on top of the treated tile. At the end of the 30 minutes, the cockroaches were transferred to an untreated area. […] 1 ml of Composition 10b was distributed on the tile. After waiting for the complete evaporation of the solvent, 1 ml of Composition 4a was added to the same tile. Subsequently, after waiting for the solvent to evaporate, 10 cockroaches were placed on top of the treated tile, starting the test. • D) Comparative. 1 ml of Composition 10b was distributed on a tile. After waiting for the complete evaporation of the solvent, 10 cockroaches were placed for 30 minutes on top of the treated tile. At the end of the 30 minutes, the cockroaches were transferred to an untreated area. […] 1 ml of Composition 8d was distributed on the tile. After waiting for the complete evaporation of the solvent, 1 ml of Composition 4a was added to the same tile. Subsequently, after waiting for the solvent to evaporate, 10 cockroaches were placed on top of the treated tile, starting the test. • F) According to the invention. 1 ml of Composition 8d was distributed on a tile. After waiting for the complete evaporation of the solvent, 10 cockroaches were placed for 30 minutes on top of the treated tile. At the end of the 30 minutes, the cockroaches were transferred to an untreated area.

The mark [3] stands for this setting: Musca domestica, single substance alone, 48 h, read-out: Mortality %/time (h).

“And” between values parts separate entries of the source, which are not always exact repeats. Identical values can stand only once. Like-named read-outs stand apart in the source and are kept apart here.

Take `CCCCCCCCCCC(O)CO` (centres unmarked) [1,2-dodecandiol]: the mortality at 680 µg/mL in data set [1] (setting [3]) was found to be 0%.
For `CCCCC(O)CO` (centres unmarked) [1,2-hexandiol (0.84), 1,2-hexandiol], the “Mortality %/time (h) (application)” value in data set [2] (48 h) is listed as 0/48 ^ %.
For `CCCCCCC(O)CO` (centres unmarked) [1,2-octandiol], in data set [1] (setting [3]), the mortality at 680 µg/mL was 0%.
`OCCCCCCCCO` [1,8-octandiol]: the mortality at 680 µg/mL in data set [1] (setting [3]) was determined as 0%.
For `COP(=O)(OC)SCn1c(=O)oc2cc(Cl)cnc21` [Azamethiphos], the mortality at 6900 µg/mL in data set [1] (Musca domestica, 48 h, read-out: Mortality %/time (h)) stood at 23%.
As for `CC1(C)C(C=C(Cl)Cl)C1C(=O)OC(C#N)c1cccc(Oc2ccccc2)c1` (centres unmarked) [Composition 3, Cypermethrin, reference compound], the Mortality % was found to be 10% in data set [1] (Example 3, 26° C, 24 h); 20% in data set [1] (Example 3, 26° C, 48 h); 5% in data set [1] (Example 9, 21° C, 24 h); 16% in data set [1] (Example 9, 21° C, 48 h); 5% in data set [1] (Example 12, 21° C, 24 h); 16% in data set [1] (Example 12, 21° C, 48 h). For the same compound, the Mortality % in data set [1] (Example 17, 21° C, 48 h) was found to be 16%; in data set [1] (Example 29, 25° C, 24 h) it was 10%; in data set [1] (Example 29, 25° C, 48 h), 16%.
Take `CC1(C)C(C=C(Cl)Cl)C1C(=O)OC(C#N)c1cccc(Oc2ccccc2)c1` (centres unmarked) [Composition 4a, Cypermethrin]: the Mortality % stood at 30% in data set [2] (Example 4, 28° C, 24 h); 35% in data set [2] (Example 4, 28° C, 48 h); 35% in data set [2] (Example 4, 28° C, 120 h); 20% in data set [2] (Example 10, 21° C, 24 h); 35% in data set [2] (Example 10, 21° C, 48 h); 20% in data set [2] (Example 11, 21° C, 48 h). Further, the Mortality % in data set [2] (Example 11, 21° C, 72 h) stood at 25%; in data set [2] (Example 11, 21° C, 96 h) it was 33%; in data set [2] (Example 13, 21° C, 48 h), 60%; in data set [2] (Example 13, 21° C, 72 h), 62%; in data set [2] (Example 20, 21° C, 24 h) it was 5%; in data set [2] (Example 20, 21° C, 72 h), 25%. Moreover, the Mortality % is listed as 10% in data set [2] (Example 32, 25° C, 24 h); 35% in data set [2] (Example 32, 25° C, 48 h); 45% in data set [2] (Example 32, 25° C, 72 h). The “Mortality %/time (h) (application)” value in data set [2] (48 h, listed as Cypermethrin (0.20)) is 35/48 ^ % and 20/48 ^ %.
In the case of `CCCCC(CC)COC(=O)OCC(CC)CCCC` (centres unmarked) [Composition 17b, Bis(2-ethyl-hexyl)-carbonate], the “Mortality %/time (h) (application)” value in data set [2] (48 h) was 0/48 ^ %.
Consider `COP(=O)(OC)SCn1c(=O)oc2cc(Cl)cnc21` [Composition 23a, Azamethiphos, reference compound], for which the Mortality % in data set [1] (Example 14, 21° C, 48 h) was 23%; in data set [1] (Example 18, 21° C, 24 h), 23%; in data set [1] (Example 24, 25° C, 24 h), 10%; in data set [1] (Example 30, 25° C, 24 h), 10%; in data set [1] (Example 30, 25° C, 48 h), 23%.
Consider `CC1(C)C(C=C(Cl)Cl)C1C(=O)OC(C#N)c1cccc(Oc2ccccc2)c1` (centres unmarked) [Composition 46a, Cypermethrin, reference compound], for which the Mortality % in data set [1] (Example 35, 25° C, 24 h) is 5%; in data set [1] (Example 35, 25° C, 48 h) it was 10%.
Take `CC1(C)C(C=C(Cl)Cl)C1C(=O)OC(C#N)c1cccc(Oc2ccccc2)c1` (centres unmarked) [Cypermethrin]: in data set [1] (Musca domestica, single substance alone, 0.23 mg/ml, 48 h, read-out: Mortality %/time (h)), the mortality at 230 µg/mL was 10%. In addition, the mortality at 450 µg/mL in data set [1] (Musca domestica, single substance alone, 0.45 mg/ml, 48 h, read-out: Mortality %/time (h)) came to 16%.
For `CCCCCCCCCCCCO` [Dodecanol], the mortality at 680 µg/mL in data set [1] (setting [3]) was 4%.
For the compound “Spinosad [Composition 43, reference compound]”, the Mortality % worked out at 27% in data set [1] (Example 19, 25° C, 24 h); 27% in data set [1] (Example 23, 25° C, 24 h); 27% in data set [1] (Example 27, 25° C, 24 h).
